Test results: US10759751B2, “Substituted spirocyclohexanes as muscarinic M1 receptor and/or M4 receptor agonists” (Heptares Therapeutics Limited, priority 2016, dated 2020)
Like-named read-outs stand apart in the source and are kept apart here.

What was measured:
Format in all cases: cell-based
[1] = biological target: T1, human muscarinic M4 receptor (Homo sapiens, UniProt P08173); assay: Alphascreen Surefire phospho-ERK1/2 functional assay, M4; settings: for EC50 / M4 % Emax cf. ACh: CHO cells stably expressing human M4; for EC50: phospho-ERK1/2, read-out: pEC50 M4 (converted); for Emax: CHO
T1 construct: expressed in transfected cells
T1 sequence (P08173 1-479): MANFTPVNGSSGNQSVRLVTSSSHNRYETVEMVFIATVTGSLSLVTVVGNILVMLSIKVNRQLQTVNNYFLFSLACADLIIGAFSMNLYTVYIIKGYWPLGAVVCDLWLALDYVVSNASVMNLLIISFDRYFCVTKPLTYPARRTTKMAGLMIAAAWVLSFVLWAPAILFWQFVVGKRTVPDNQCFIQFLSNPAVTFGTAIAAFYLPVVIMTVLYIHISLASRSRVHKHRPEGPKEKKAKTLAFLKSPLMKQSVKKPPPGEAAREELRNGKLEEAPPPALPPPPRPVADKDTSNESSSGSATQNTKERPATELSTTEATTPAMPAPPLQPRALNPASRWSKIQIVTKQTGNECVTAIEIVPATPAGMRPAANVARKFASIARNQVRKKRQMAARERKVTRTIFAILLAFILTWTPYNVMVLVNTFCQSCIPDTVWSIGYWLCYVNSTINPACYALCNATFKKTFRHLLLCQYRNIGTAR
Method in brief: (§1)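 Read-out: AlphaScreen SureFire signal for phospho-ERK1/2 in lysates of stably transfected CHO cells, read after 2 h in the dark. Cells were serum-starved overnight and given agonist for 5 min at 37 °C. Values are pEC50 and Emax.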

[2] = biological target: T2, human muscarinic M1 receptor (Homo sapiens, UniProt P11229); assay: Alphascreen Surefire phospho-ERK1/2 functional assay, M1; settings: for EC50: phospho-ERK1/2, read-out: pEC50 M1 (converted); for Emax: CHO
T2 sequence (P11229 1-460): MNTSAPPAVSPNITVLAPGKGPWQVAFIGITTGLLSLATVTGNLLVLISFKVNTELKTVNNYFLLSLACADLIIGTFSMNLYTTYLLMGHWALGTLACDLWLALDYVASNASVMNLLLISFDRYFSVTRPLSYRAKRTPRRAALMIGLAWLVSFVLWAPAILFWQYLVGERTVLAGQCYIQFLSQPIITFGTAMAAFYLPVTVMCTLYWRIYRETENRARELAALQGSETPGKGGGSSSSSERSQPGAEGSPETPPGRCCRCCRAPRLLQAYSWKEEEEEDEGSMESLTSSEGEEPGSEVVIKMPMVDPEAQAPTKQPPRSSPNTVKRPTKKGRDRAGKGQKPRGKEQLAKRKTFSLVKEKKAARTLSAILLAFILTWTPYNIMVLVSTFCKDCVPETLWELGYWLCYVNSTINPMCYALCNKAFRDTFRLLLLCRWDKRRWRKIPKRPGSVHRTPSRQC
Method in brief: as §1

[3] = biological target: T3, human muscarinic M2 receptor (Homo sapiens, UniProt P08172); assay: Alphascreen Surefire phospho-ERK1/2 functional assay, M2; settings: for EC50: CHO cells stably expressing human M2, phospho-ERK1/2, read-out: pEC50 M2 (converted); for Emax: CHO, read-out: M2 % Emax cf. ACh
T3 sequence (P08172 1-466): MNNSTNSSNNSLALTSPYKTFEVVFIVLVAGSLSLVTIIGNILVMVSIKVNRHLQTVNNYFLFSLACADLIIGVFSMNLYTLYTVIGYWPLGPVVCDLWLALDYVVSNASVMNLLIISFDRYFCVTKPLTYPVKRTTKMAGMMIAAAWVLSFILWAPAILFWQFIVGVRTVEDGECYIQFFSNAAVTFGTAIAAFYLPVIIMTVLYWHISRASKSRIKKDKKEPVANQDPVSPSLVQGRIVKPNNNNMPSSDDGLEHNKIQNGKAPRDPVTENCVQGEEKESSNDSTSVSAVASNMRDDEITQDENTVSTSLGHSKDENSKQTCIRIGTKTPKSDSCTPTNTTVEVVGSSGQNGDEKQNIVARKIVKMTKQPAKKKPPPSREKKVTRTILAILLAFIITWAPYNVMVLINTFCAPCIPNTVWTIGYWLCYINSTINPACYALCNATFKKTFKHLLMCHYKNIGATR
Protocol: (§2) Functional assays were performed using the Alphascreen Surefire phospho-ERK1/2 assay (Crouch & Osmond, Comb. Chem. High Throughput Screen, 2008). ERK1/2 phosphorylation is a downstream consequence of both Gq/11 and Gi/o protein coupled receptor activation, making it highly suitable for the assessment of M1, M3 (Gq/11 coupled) and M2, M4 receptors (Gi/o coupled), rather than using different assay formats for different receptor subtypes. CHO cells stably expressing the human muscarinic M1, M2, M3 or M4 receptor were plated (25K/well) onto 96-well tissue culture plates in MEM-alpha+10% dialysed FBS. Once adhered, cells were serum-starved overnight. Agonist stimulation was performed by the addition of 5 μL agonist to the cells for 5 min (37° C.). Media was removed and 50 μL of lysis buffer added. After 15 min, a 4 μL sample was transferred to 384-well plate and 7 μL of detection mixture added. Plates were incubated for 2 h with gentle agitation in the dark and then read on a PHERAstar plate reader.
(§3) pEC50 and Emax figures were calculated from the resulting data for each receptor subtype.

[4] = biological target: T4, human muscarinic M3 receptor (Homo sapiens, UniProt P20309); assay: Alphascreen Surefire phospho-ERK1/2 functional assay, M3; settings: for EC50: CHO cells stably expressing human M3, phospho-ERK1/2, read-out: pEC50 M3 (converted); for Emax: CHO, read-out: M3 % Emax cf. ACh
T4 construct: expressed in transfected cells
Protocol: as §2, §3

[5] = read-out: M4 % Emax cf. ACh, CHO cells stably expressing human M4, Emax relative to ACh
[6] = CHO cells stably expressing human M1
[7] = read-out: M1 % Emax cf. ACh, CHO cells stably expressing human M1, Emax relative to ACh

T4 sequence (P20309 whole entry): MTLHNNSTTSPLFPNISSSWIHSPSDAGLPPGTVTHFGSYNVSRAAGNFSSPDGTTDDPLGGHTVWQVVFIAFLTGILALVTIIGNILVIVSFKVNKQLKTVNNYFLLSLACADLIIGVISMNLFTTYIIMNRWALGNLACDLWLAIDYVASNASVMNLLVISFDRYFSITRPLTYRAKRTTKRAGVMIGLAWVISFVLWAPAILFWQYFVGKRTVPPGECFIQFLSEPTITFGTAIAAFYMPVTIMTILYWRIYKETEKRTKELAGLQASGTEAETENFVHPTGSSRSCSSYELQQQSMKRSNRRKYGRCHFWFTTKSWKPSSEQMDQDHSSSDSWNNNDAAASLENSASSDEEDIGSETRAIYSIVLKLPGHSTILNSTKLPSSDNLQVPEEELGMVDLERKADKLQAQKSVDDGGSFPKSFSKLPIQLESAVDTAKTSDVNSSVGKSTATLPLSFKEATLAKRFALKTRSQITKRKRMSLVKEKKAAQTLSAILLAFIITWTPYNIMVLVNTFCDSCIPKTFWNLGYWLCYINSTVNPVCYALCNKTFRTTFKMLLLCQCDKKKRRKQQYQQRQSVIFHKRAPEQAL

Row | EC50 [1] | Emax [1, 5] | EC50 [2, 6] | Emax [2, 7] | EC50 [3] | Emax [3] | EC50 [4] | Emax [4] | M4 % Emax cf. ACh ([1]; Emax relative to ACh) | M1 % Emax cf. ACh ([2]; CHO cells stably expressing human M1, Emax relative to ACh) | Compound | Emax ([1]; read-out: M4 % Emax cf. ACh) | Emax ([2]; read-out: M1 % Emax cf. ACh)
1 | 60.3 nM | 54% | 186 nM | 66% | > 20000 nM | 11% | > 20000 nM | 16% | – | – | CCOC(=O)N[C@H]1CCN(C2CCC3(CC2)C(=O)Nc2cccc(C)c23)C1 (single isomer, unassigned) [2-6 isomer 1] | – | –
2 | 81.3 nM | – | 16.2 nM | 38% | > 20000 nM | 6% | > 20000 nM | 4% | 35% | – | COc1ccc2c(c1)C1(CCC(N3CCC4(CC(c5nc(C)no5)C4)C3)CC1)C(=O)N2 (single isomer, unassigned) [26-2 Isomer 1] | – | –
3 | 170 nM | – | 75.9 nM | – | > 20000 nM | 37% | > 20000 nM | 3% | 32% | 122% | CCOC(=O)NCC1CCN(C2CCC3(CC2)C(=O)Nc2ccccc23)CC1 (single isomer, unassigned) [7-2 isomer 1] | – | –
4 | > 20000 nM | 2% | 115 nM | 98% | > 20000 nM | 33% | > 20000 nM | 0% | – | – | CCOC(=O)N1CCCN(C2CCC(C#N)(c3ccc(OC)cc3)CC2)CC1 (mixture of isomers) [3-9 mixture of isomers] | – | –
5 | 174 nM | 141% | 148 nM | 122% | > 20000 nM | 21% | > 20000 nM | 11% | – | – | CCOC(=O)N(C)[C@@H]1CCN(C2CCC3(CC2)C(=O)Nc2ncccc23)C1 (single isomer, unassigned) [2-18 isomer 1] | – | –
6 | > 20000 nM | 9% | 148 nM | 99% | > 20000 nM | 0% | > 20000 nM | 1% | – | – | CCOC(=O)N[C@H]1CCN(C2CCC(C#N)(c3cccc(OC)c3)CC2)C1 (single isomer, unassigned) [1-11 Isomer 2] | – | –
7 | > 20000 nM | 46% | 115 nM | 125% | > 20000 nM | 5% | > 20000 nM | 33% | – | – | CCOC(=O)N[C@@H]1CCN(C2CCC(C#N)(c3ccccc3F)CC2)C1 (single isomer, unassigned) [1-5 Isomer 2] | – | –
8 | 141 nM | 40% | 123 nM | 51% | > 20000 nM | 17% | > 20000 nM | 59% | – | – | Cc1ccc2c(c1)C1(CCC(N3CCC[C@@H](c4nc(C)no4)C3)CC1)C(=O)N2 (single isomer, unassigned) [22-3 Isomer 1] | – | –
9 | 126 nM | 90% | 6.61 nM | 103% | > 20000 nM | 10% | > 20000 nM | 39% | – | – | CCOC(=O)N1CCCN(C2CCC(C#N)(c3ccc(Cl)cn3)CC2)CC1 (mixture of isomers) [3-16 mixture of isomers] | – | –
10 | > 20000 nM | 19% | 275 nM | 105% | > 20000 nM | 1% | > 20000 nM | 3% | – | – | CCOC(=O)N1CC2(CCN(C3CCC(C#N)(c4ccccc4)CC3)CC2)C1 (single isomer, unassigned) [11-1 Isomer 2] | – | –
11 | > 20000 nM | 32% | 123 nM | 89% | > 20000 nM | 2% | > 20000 nM | 0% | – | – | CCOC(=O)N[C@H]1CCN(C2CCC(C#N)(c3ccc(F)cn3)CC2)C1 (single isomer, unassigned) [1-14 Isomer 2] | – | –

Row | Compound | EC50 [1] | Emax [1, 5] | EC50 [2, 6] | Emax [2, 7] | EC50 [3] | Emax [3] | EC50 [4] | Emax [4] | M4 % Emax cf. ACh ([1]; Emax relative to ACh) | M1 % Emax cf. ACh ([2]; CHO cells stably expressing human M1, Emax relative to ACh) | Emax ([1]; read-out: M4 % Emax cf. ACh) | Emax ([2]; read-out: M1 % Emax cf. ACh)
12 | CCOC(=O)N(C)[C@H]1CCN(C2CCC(C#N)(c3ccccc3)CC2)C1 (single isomer, unassigned) [1-20 Isomer 2] | > 20000 nM | – | 148 nM | – | > 20000 nM | 0% | > 20000 nM | 0% | – | – | 19% | 78%
